Reference: the NIST ThermoML archive (doi:10.1016/j.tca.2011.08.013)
Numbers after ± are expanded uncertainties.

How the values were obtained:
[1] = Liquid; for viscosity: Capillary tube (Ostwald / Ubbelohde) method; for speed of sound: Linear variable-path acoustic interferometer; for mass density: Pycnometric method
[2] = xn = mol fraction of the nth substance listed; conditions: 101 kPa, Liquid; for viscosity: Capillary tube (Ostwald / Ubbelohde) method; for speed of sound: Linear variable-path acoustic interferometer; for mass density: Pycnometric method
[3] = mn = molality of the nth substance listed, in mol/kg; conditions: 101 kPa, Liquid; for viscosity: Capillary tube (Ostwald / Ubbelohde) method; for speed of sound: Linear variable-path acoustic interferometer; for mass density: Pycnometric method

O [water]
viscosity ([1]; 303.15 K, 101 kPa): 0.797 ± 0.011 mPa·s | speed of sound ([1]; 303.15 K, 101 kPa): 1512 ± 2.7 m/s | viscosity ([1]; 308.15 K, 101 kPa): 0.719 ± 0.01 mPa·s | viscosity ([1]; 313.15 K, 101 kPa): 0.653 ± 0.009 mPa·s | speed of sound ([1]; 313.15 K, 101 kPa): 1528 ± 2.8 m/s | viscosity ([1]; 318.15 K, 101 kPa): 0.597 ± 0.008 mPa·s | speed of sound ([1]; 318.15 K, 101 kPa): 1535.2 ± 2.8 m/s

C[S+](C)[O-] [dimethyl sulfoxide] + O
viscosity ([2]; 303.15 K, x1 = 0.0121): 0.9 ± 0.012 mPa·s | viscosity ([2]; 303.15 K, x1 = 0.0255): 0.979 ± 0.013 mPa·s | viscosity ([2]; 303.15 K, x1 = 0.0424): 1.089 ± 0.014 mPa·s | viscosity ([2]; 303.15 K, x1 = 0.0583): 1.224 ± 0.015 mPa·s | speed of sound ([2]; 303.15 K, x1 = 0.0121): 1534.6 ± 2.8 m/s | speed of sound ([2]; 303.15 K, x1 = 0.0255): 1556.6 ± 2.8 m/s | speed of sound ([2]; 303.15 K, x1 = 0.0424): 1580 ± 2.8 m/s | speed of sound ([2]; 303.15 K, x1 = 0.0583): 1602.7 ± 2.8 m/s | mass density ([2]; 303.15 K, x1 = 0.0121): 1002 ± 1.3 kg/m3 | mass density ([2]; 303.15 K, x1 = 0.0255): 1008 ± 1.3 kg/m3 | mass density ([2]; 303.15 K, x1 = 0.0424): 1015.3 ± 1.3 kg/m3 | mass density ([2]; 303.15 K, x1 = 0.0583): 1021.4 ± 1.3 kg/m3 | viscosity ([2]; 308.15 K, x1 = 0.0121): 0.805 ± 0.011 mPa·s | viscosity ([2]; 308.15 K, x1 = 0.0255): 0.888 ± 0.012 mPa·s | viscosity ([2]; 308.15 K, x1 = 0.0424): 0.988 ± 0.013 mPa·s | viscosity ([2]; 308.15 K, x1 = 0.0583): 1.102 ± 0.014 mPa·s | speed of sound ([2]; 308.15 K, x1 = 0.0121): 1541.3 ± 2.8 m/s | speed of sound ([2]; 308.15 K, x1 = 0.0255): 1561.7 ± 2.8 m/s | speed of sound ([2]; 308.15 K, x1 = 0.0424): 1583.1 ± 2.8 m/s | speed of sound ([2]; 308.15 K, x1 = 0.0583): 1603.5 ± 2.8 m/s | mass density ([2]; 308.15 K, x1 = 0.0121): 1000.3 ± 1.3 kg/m3 | mass density ([2]; 308.15 K, x1 = 0.0255): 1006.4 ± 1.3 kg/m3 | mass density ([2]; 308.15 K, x1 = 0.0424): 1013.6 ± 1.3 kg/m3 | mass density ([2]; 308.15 K, x1 = 0.0583): 1019.3 ± 1.3 kg/m3 | viscosity ([2]; 313.15 K, x1 = 0.0121): 0.729 ± 0.01 mPa·s | viscosity ([2]; 313.15 K, x1 = 0.0255): 0.806 ± 0.011 mPa·s | viscosity ([2]; 313.15 K, x1 = 0.0424): 0.887 ± 0.012 mPa·s | viscosity ([2]; 313.15 K, x1 = 0.0583): 1.002 ± 0.013 mPa·s | speed of sound ([2]; 313.15 K, x1 = 0.0121): 1546.2 ± 2.8 m/s | speed of sound ([2]; 313.15 K, x1 = 0.0255): 1566 ± 2.8 m/s | speed of sound ([2]; 313.15 K, x1 = 0.0424): 1586.1 ± 2.8 m/s | speed of sound ([2]; 313.15 K, x1 = 0.0583): 1604.9 ± 2.8 m/s | mass density ([2]; 313.15 K, x1 = 0.0121): 998.5 ± 1.3 kg/m3 | mass density ([2]; 313.15 K, x1 = 0.0255): 1004.4 ± 1.3 kg/m3 | mass density ([2]; 313.15 K, x1 = 0.0424): 1011.4 ± 1.3 kg/m3 | mass density ([2]; 313.15 K, x1 = 0.0583): 1017.6 ± 1.3 kg/m3 | viscosity ([2]; 318.15 K, x1 = 0.0121): 0.667 ± 0.009 mPa·s | viscosity ([2]; 318.15 K, x1 = 0.0255): 0.735 ± 0.01 mPa·s | viscosity ([2]; 318.15 K, x1 = 0.0424): 0.808 ± 0.011 mPa·s | viscosity ([2]; 318.15 K, x1 = 0.0583): 0.903 ± 0.012 mPa·s | speed of sound ([2]; 318.15 K, x1 = 0.0121): 1552.4 ± 2.8 m/s | speed of sound ([2]; 318.15 K, x1 = 0.0255): 1569.7 ± 2.8 m/s | speed of sound ([2]; 318.15 K, x1 = 0.0424): 1587.2 ± 2.8 m/s | speed of sound ([2]; 318.15 K, x1 = 0.0583): 1603.3 ± 2.8 m/s | mass density ([2]; 318.15 K, x1 = 0.0121): 996.2 ± 1.3 kg/m3 | mass density ([2]; 318.15 K, x1 = 0.0255): 1002.3 ± 1.3 kg/m3 | mass density ([2]; 318.15 K, x1 = 0.0424): 1009.3 ± 1.3 kg/m3 | mass density ([2]; 318.15 K, x1 = 0.0583): 1015.3 ± 1.3 kg/m3

[F-].[K+] [potassium fluoride] + O
viscosity ([3]; 303.15 K, m1 = 0.05): 0.805 ± 0.011 mPa·s | viscosity ([3]; 303.15 K, m1 = 0.1): 0.811 ± 0.011 mPa·s | viscosity ([3]; 303.15 K, m1 = 0.15): 0.819 ± 0.011 mPa·s | viscosity ([3]; 303.15 K, m1 = 0.2): 0.827 ± 0.011 mPa·s | speed of sound ([3]; 303.15 K, m1 = 0.05): 1515.5 ± 2.7 m/s | speed of sound ([3]; 303.15 K, m1 = 0.1): 1518.9 ± 2.8 m/s | speed of sound ([3]; 303.15 K, m1 = 0.15): 1522.1 ± 2.8 m/s | speed of sound ([3]; 303.15 K, m1 = 0.2): 1525.8 ± 2.8 m/s | mass density ([3]; 303.15 K, m1 = 0.05): 998.2 ± 1.3 kg/m3 | mass density ([3]; 303.15 K, m1 = 0.1): 1000.4 ± 1.3 kg/m3 | mass density ([3]; 303.15 K, m1 = 0.15): 1002.6 ± 1.3 kg/m3 | mass density ([3]; 303.15 K, m1 = 0.2): 1004.7 ± 1.3 kg/m3 | viscosity ([3]; 308.15 K, m1 = 0.05): 0.726 ± 0.01 mPa·s | viscosity ([3]; 308.15 K, m1 = 0.1): 0.734 ± 0.01 mPa·s | viscosity ([3]; 308.15 K, m1 = 0.15): 0.741 ± 0.01 mPa·s | viscosity ([3]; 308.15 K, m1 = 0.2): 0.745 ± 0.01 mPa·s | speed of sound ([3]; 308.15 K, m1 = 0.05): 1524 ± 2.8 m/s | speed of sound ([3]; 308.15 K, m1 = 0.1): 1526.9 ± 2.8 m/s | speed of sound ([3]; 308.15 K, m1 = 0.15): 1530.5 ± 2.8 m/s | speed of sound ([3]; 308.15 K, m1 = 0.2): 1534 ± 2.8 m/s | mass density ([3]; 308.15 K, m1 = 0.05): 996.6 ± 1.3 kg/m3 | mass density ([3]; 308.15 K, m1 = 0.1): 998.8 ± 1.3 kg/m3 | mass density ([3]; 308.15 K, m1 = 0.15): 1001 ± 1.3 kg/m3 | mass density ([3]; 308.15 K, m1 = 0.2): 1003.2 ± 1.3 kg/m3 | viscosity ([3]; 313.15 K, m1 = 0.05): 0.66 ± 0.009 mPa·s | viscosity ([3]; 313.15 K, m1 = 0.1): 0.668 ± 0.009 mPa·s | viscosity ([3]; 313.15 K, m1 = 0.15): 0.672 ± 0.009 mPa·s | viscosity ([3]; 313.15 K, m1 = 0.2): 0.679 ± 0.009 mPa·s | speed of sound ([3]; 313.15 K, m1 = 0.05): 1531.4 ± 2.8 m/s | speed of sound ([3]; 313.15 K, m1 = 0.1): 1536.1 ± 2.8 m/s | speed of sound ([3]; 313.15 K, m1 = 0.15): 1538.6 ± 2.8 m/s | speed of sound ([3]; 313.15 K, m1 = 0.2): 1542.4 ± 2.8 m/s | mass density ([3]; 313.15 K, m1 = 0.05): 994.7 ± 1.3 kg/m3 | mass density ([3]; 313.15 K, m1 = 0.1): 997 ± 1.3 kg/m3 | mass density ([3]; 313.15 K, m1 = 0.15): 999.1 ± 1.3 kg/m3 | mass density ([3]; 313.15 K, m1 = 0.2): 1001.2 ± 1.3 kg/m3 | viscosity ([3]; 318.15 K, m1 = 0.05): 0.604 ± 0.009 mPa·s | viscosity ([3]; 318.15 K, m1 = 0.1): 0.612 ± 0.009 mPa·s | viscosity ([3]; 318.15 K, m1 = 0.15): 0.615 ± 0.009 mPa·s | viscosity ([3]; 318.15 K, m1 = 0.2): 0.622 ± 0.009 mPa·s | speed of sound ([3]; 318.15 K, m1 = 0.05): 1538.6 ± 2.8 m/s | speed of sound ([3]; 318.15 K, m1 = 0.1): 1543.4 ± 2.8 m/s | speed of sound ([3]; 318.15 K, m1 = 0.15): 1546.2 ± 2.8 m/s | speed of sound ([3]; 318.15 K, m1 = 0.2): 1549.4 ± 2.8 m/s | mass density ([3]; 318.15 K, m1 = 0.05): 992.7 ± 1.3 kg/m3 | mass density ([3]; 318.15 K, m1 = 0.1): 994.8 ± 1.3 kg/m3 | mass density ([3]; 318.15 K, m1 = 0.15): 997 ± 1.3 kg/m3 | mass density ([3]; 318.15 K, m1 = 0.2): 999.2 ± 1.3 kg/m3

C[S+](C)[O-] [dimethyl sulfoxide]
viscosity ([1]; 308.15 K, 101.33 kPa): 1.655 ± 0.011 mPa·s | speed of sound ([1]; 308.15 K, 101.33 kPa): 1457.9 ± 1.7 m/s | mass density ([1]; 308.15 K, 101.33 kPa): 1085.9 ± 0.6 kg/m3 | viscosity ([1]; 318.15 K, 101.33 kPa): 1.392 ± 0.009 mPa·s | speed of sound ([1]; 318.15 K, 101.33 kPa): 1423.4 ± 1.7 m/s | mass density ([1]; 318.15 K, 101.33 kPa): 1075.6 ± 0.7 kg/m3
